Measurements taken from ChEMBL document CHEMBL3351796, “Discovery of potent and selective sirtuin 2 (SIRT2) inhibitors using a fragment-based approach” (J Med Chem, 2014).

Experiments:
[1] = target: T1, NAD-dependent protein deacetylase sirtuin-3, mitochondrial (Homo sapiens) (UniProt Q9NTG7); conditions: BL21-DE3, 100 uM
T1 sequence (whole entry): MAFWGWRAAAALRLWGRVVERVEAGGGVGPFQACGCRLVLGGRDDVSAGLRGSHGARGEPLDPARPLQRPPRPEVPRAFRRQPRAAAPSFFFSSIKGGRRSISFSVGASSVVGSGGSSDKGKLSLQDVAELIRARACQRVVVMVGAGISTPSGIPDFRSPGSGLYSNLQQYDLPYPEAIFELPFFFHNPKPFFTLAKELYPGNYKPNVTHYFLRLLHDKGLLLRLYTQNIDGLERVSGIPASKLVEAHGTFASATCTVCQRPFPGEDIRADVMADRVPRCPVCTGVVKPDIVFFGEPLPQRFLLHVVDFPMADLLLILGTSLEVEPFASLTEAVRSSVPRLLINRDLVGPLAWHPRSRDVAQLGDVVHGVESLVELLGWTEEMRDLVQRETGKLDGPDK

[2] = target: T2, NAD-dependent protein deacetylase sirtuin-2 (Homo sapiens) (UniProt Q8IXJ6); test: Inhibition of full length human SIRT2 expressed in Escherichia coli BL21 (DE3) cells at 100 uM using fluorogenic 7-amino-4-methylcoumarin (AMC)-labeled peptide by fluorescence assay
T2 sequence (whole entry): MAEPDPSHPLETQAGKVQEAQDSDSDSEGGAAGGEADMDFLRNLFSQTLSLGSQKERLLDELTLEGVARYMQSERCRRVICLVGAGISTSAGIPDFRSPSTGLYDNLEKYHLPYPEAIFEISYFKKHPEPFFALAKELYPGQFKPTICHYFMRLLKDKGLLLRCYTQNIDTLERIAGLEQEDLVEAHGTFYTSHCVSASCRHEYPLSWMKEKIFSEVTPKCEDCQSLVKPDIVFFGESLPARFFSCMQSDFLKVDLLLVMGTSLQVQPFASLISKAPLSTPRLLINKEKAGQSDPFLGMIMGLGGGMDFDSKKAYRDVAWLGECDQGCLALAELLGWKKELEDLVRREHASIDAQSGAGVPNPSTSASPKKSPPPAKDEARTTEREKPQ

[3] = target: T3, NAD-dependent protein deacetylase sirtuin-1 (Homo sapiens) (UniProt Q96EB6); test: Inhibition of full length human SIRT1 expressed in Escherichia coli BL21 (DE3) cells at 100 uM using fluorogenic 7-amino-4-methylcoumarin (AMC)-labeled peptide by fluorescence assay
T3 sequence (whole entry): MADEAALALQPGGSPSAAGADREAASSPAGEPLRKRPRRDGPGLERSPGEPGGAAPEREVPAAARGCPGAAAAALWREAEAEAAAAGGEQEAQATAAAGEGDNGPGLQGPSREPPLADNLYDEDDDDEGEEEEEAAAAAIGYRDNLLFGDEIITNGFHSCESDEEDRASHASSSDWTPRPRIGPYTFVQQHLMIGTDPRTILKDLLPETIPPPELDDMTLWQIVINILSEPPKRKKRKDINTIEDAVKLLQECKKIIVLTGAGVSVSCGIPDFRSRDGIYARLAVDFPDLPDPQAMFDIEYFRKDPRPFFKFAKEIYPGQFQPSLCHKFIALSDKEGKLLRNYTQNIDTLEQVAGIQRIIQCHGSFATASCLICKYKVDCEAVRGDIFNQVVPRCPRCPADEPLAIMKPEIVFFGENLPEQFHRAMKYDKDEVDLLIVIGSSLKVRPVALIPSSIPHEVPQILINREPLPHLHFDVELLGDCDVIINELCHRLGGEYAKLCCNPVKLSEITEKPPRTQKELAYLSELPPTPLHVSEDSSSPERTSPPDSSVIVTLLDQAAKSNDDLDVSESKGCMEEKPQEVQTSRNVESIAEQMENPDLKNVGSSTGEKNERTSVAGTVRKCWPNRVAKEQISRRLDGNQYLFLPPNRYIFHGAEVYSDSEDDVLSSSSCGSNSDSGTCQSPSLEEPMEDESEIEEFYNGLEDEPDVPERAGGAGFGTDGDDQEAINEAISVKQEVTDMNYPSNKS

[4] = target: T4, NAD-dependent protein deacetylase sirtuin-2 (Homo sapiens, UniProt Q8IXJ6); test: Inhibition of full length human SIRT2 expressed in Escherichia coli BL21 (DE3) cells using fluorogenic 7-amino-4-methylcoumarin (AMC)-labeled peptide by fluorescence assay
T4 sequence (Q8IXJ6 whole entry): T2 sequence (whole entry)

[5] = target: T5, NAD-dependent protein deacetylase sirtuin-1 (Homo sapiens, UniProt Q96EB6); test: biochemical; assay type: cell-based, BL21-DE3
T5 sequence (Q96EB6 whole entry): T3 sequence (whole entry)
Description: Inhibition of full length human SIRT1 expressed in Escherichia coli BL21 (DE3) cells using fluorogenic 7-amino-4-methylcoumarin (AMC)-labeled peptide by fluorescence assay

[6] = target: T6, NAD-dependent protein deacetylase sirtuin-3, mitochondrial (Homo sapiens, UniProt Q9NTG7); test: biochemical
T6 sequence (Q9NTG7 whole entry): T1 sequence (whole entry)
Description: Inhibition of catalytically active human SIRT3 (102 to 399 amino acids) expressed in Escherichia coli BL21 (DE3) cells using fluorogenic 7-amino-4-methylcoumarin (AMC)-labeled peptide by fluorescence assay

SMILES	inhibition [1] [%]	inhibition [2] [%]	inhibition [3] [%]	IC50 [4] [µM]	IC50 [5] [µM]	IC50 [6] [µM]
NC(=O)c1ccc(Oc2ccc3ccccc3c2)cc1	< 10	16	< 10	–	–	–
NC(=O)c1ccc(Nc2cccc3ccccc23)cc1	22	< 10	< 10	–	–	–
NC(=O)c1cncc(Oc2ccc3c(NC(=O)c4cccc([N+](=O)[O-])c4)cccc3c2)c1	–	–	–	0.811	11.7	–
NC(=O)c1cncc(Sc2cccc3ccccc23)c1	–	–	–	9.8	30.3	–
NC(=O)c1cncc(Oc2ccc3ccccc3c2)c1	–	–	–	6.29	13.5	2.14
N#C/C(=C\c1ccc(-c2cc(Cl)ccc2Cl)o1)C(=O)Nc1cccc2ncccc12	–	–	–	–	135	–
NC(=O)c1cccc(Nc2cccc3ccccc23)c1	< 10	46	< 10	–	–	–
NC(=O)c1cccc(Oc2cccc3ccccc23)c1	35	66	35	–	–	–
NC(=O)c1cncc(Oc2cccc3ccccc23)c1	–	–	–	7.57	4.89	–
NC(=O)c1ccc(Oc2ccc3ccccc3c2)nc1	44	61	31	–	–	–
NC(=O)c1ccc(Sc2cccc3ccccc23)cc1	< 10	24	< 10	–	–	–
NC(=O)c1cccc(Oc2ccc3ccccc3c2)c1	49	84	47	–	–	–
NC(=O)c1cncc(Sc2ccc3ccccc3c2)c1	–	–	–	12.1	26.9	–
NC(=O)c1cncc(Oc2cccc3c(NC(=O)c4cccnc4)cccc23)c1	–	–	–	0.558	70.7	–
NC(=O)c1ccc(Nc2ccc3ccccc3c2)nc1	< 10	20	< 10	–	–	–
NC(=O)c1ccc(Oc2cccc3ccccc23)nc1	39	33	< 10	–	–	–

SMILES	inhibition [1] [%]	inhibition [2] [%]	inhibition [3] [%]	IC50 [4] [µM]	IC50 [5] [µM]	IC50 [6] [µM]
Cc1ccc(C(=O)Nc2cccc3cc(Oc4cncc(C(N)=O)c4)ccc23)cc1	–	–	–	0.489	3.82	–
NC(=O)c1ccc(Oc2cccc3ccccc23)cc1	10	27	< 10	–	–	–
Cc1ccc(C(=O)Nc2cccc3c(Oc4cncc(C(N)=O)c4)cccc23)cc1	–	–	–	0.0774	18.7	–
Cc1ccc(C(=O)Nc2cccc3cc(Oc4cncc(C(N)=O)c4)ccc23)cc1[N+](=O)[O-]	–	–	–	0.869	0.788	4.37
NC(=O)c1ccc(Nc2ccc3ccccc3c2)cc1	47	15	< 10	–	–	–
NC(=O)c1cncc(Oc2cccc3c(NC(=O)c4ccncc4)cccc23)c1	–	–	–	0.955	15.4	–
NC(=O)c1ccc(Sc2ccc3ccccc3c2)nc1	42	73	31	–	–	–
NC(=O)c1cncc(Nc2cccc3ccccc23)c1	–	–	–	9.7	40.9	9
NC(=O)c1cncc(Oc2cccc3c(NC(=O)c4cccc([N+](=O)[O-])c4)cccc23)c1	–	–	–	0.434	64	–
Cc1ccc(C(=O)Nc2cccc3c(Oc4cncc(C(N)=O)c4)cccc23)cc1[N+](=O)[O-]	–	–	–	0.978	100	–
NC(=O)c1ccc(Sc2ccc3ccccc3c2)cc1	< 10	41	20	–	–	–
NC(=O)c1cccc(Nc2ccc3ccccc3c2)c1	< 10	65	< 10	–	–	–
NC(=O)c1ccc(Nc2cccc3ccccc23)nc1	38	41	19	–	–	–
NC(=O)c1ccc(Sc2cccc3ccccc23)nc1	42	47	40	–	–	–
NC(=O)c1cncc(Nc2ccc3ccccc3c2)c1	–	–	–	4.3	33.6	–

Further lines, results first:

inhibition [1] [%]	inhibition [2] [%]	inhibition [3] [%]	IC50 [4] [µM]	IC50 [5] [µM]	IC50 [6] [µM]	SMILES
25	17	22	–	–	–	Cc1ccc(C(=O)Nc2ccc(S(=O)(=O)O)c3ccccc23)cc1
< 10	38	19	–	–	–	Cc1ccc(C(=O)Nc2cccc3cc(S(=O)(=O)O)ccc23)cc1[N+](=O)[O-]
–	–	–	0.436	22.4	–	NC(=O)c1cncc(Oc2ccc3c(NC(=O)c4ccccc4)cccc3c2)c1
23	29	< 10	–	–	–	O=C(Nc1ccc(S(=O)(=O)O)c2ccccc12)c1cccc([N+](=O)[O-])c1
25	10	< 10	–	–	–	O=C(Nc1ccc(S(=O)(=O)O)c2ccccc12)c1ccccc1
16	< 10	12	–	–	–	Cc1ccc(C(=O)Nc2cccc3cccc(S(=O)(=O)O)c23)cc1N
< 10	13	11	–	–	–	Cc1ccc(C(=O)Nc2ccc(S(=O)(=O)O)c3ccccc23)cc1N
15	< 10	17	–	–	–	O=C(Nc1cccc2cccc(S(=O)(=O)O)c12)c1ccccc1
< 10	< 10	26	–	–	–	Cc1ccc(C(=O)Nc2cccc3cccc(S(=O)(=O)O)c23)cc1[N+](=O)[O-]
< 10	< 10	12	–	–	–	Nc1cccc(C(=O)Nc2cccc3cccc(S(=O)(=O)O)c23)c1
22	24	19	–	–	–	Cc1ccc(C(=O)Nc2cccc3cc(S(=O)(=O)O)ccc23)cc1
< 10	< 10	< 10	–	–	–	Nc1cccc(C(=O)Nc2cccc3cc(S(=O)(=O)O)ccc23)c1
10	< 10	< 10	–	–	–	Cc1ccc(C(=O)Nc2cccc3cccc(S(=O)(=O)O)c23)cc1
< 10	< 10	< 10	–	–	–	O=C(Nc1cccc2cccc(S(=O)(=O)O)c12)c1cccc([N+](=O)[O-])c1
< 10	22	13	–	–	–	O=C(Nc1cccc2cc(S(=O)(=O)O)ccc12)c1cccc([N+](=O)[O-])c1
22	25	23	–	–	–	Cc1ccc(C(=O)Nc2ccc(S(=O)(=O)O)c3ccccc23)cc1[N+](=O)[O-]
< 10	< 10	< 10	–	–	–	Nc1cccc(C(=O)Nc2ccc(S(=O)(=O)O)c3ccccc23)c1
21	< 10	< 10	–	–	–	O=C(Nc1cccc2cc(S(=O)(=O)O)ccc12)c1ccccc1
< 10	13	14	–	–	–	Cc1ccc(C(=O)Nc2cccc3cc(S(=O)(=O)O)ccc23)cc1N
